From the NIST ThermoML archive (doi:10.1016/j.tca.2016.04.023)
“And” between values parts separate entries of the source, which are not always exact repeats. Equal entries are not always repeated. ± gives the expanded uncertainty stated by the source.

How the values were obtained:
[1] = Molar enthalpy of transition or fusion; details: Crystal; DSC
[2] = Crystal; DTA

## O.O.O.O.O.O.[Ca+2].[Cl-].[Cl-] [calcium chloride hexahydrate]
[1]
  Molar enthalpy of transition or fusion: 9.69 kcal/mol and 9.27 kcal/mol
[2]
  Normal melting temperature: 28.70 ± 1.1 °C and 28.30 ± 1.1 °C
